{
  "source": "patent US20250032443A1",
  "about": "“TREATMENT OF MYOTONIC DISORDERS” (University of Rochester, priority 2021, published 2025)",
  "key": {"[1]": {"test_system": "Cav1.1^Δe29/ClC-1^−/− mice", "test": "Body weight measurements in Cav1.1^Δe29/ClC-1^−/− mice", "type": "in vivo, mouse", "method": "Mice were provided food cups immediately after weaning, and food was changed daily. No other food source was given, but water was provided and changed weekly along with cages.\nBody weight of the mice was measured every other day following weaning to the end of terminal experimentation. For statistical analysis, two-way ANOVA was performed on the average of each week's measurements. Percent body weight change at 10 weeks was determined with the first weight measurement taken post-weaning, and the body weight reached at 10 weeks."}, "[2]": {"test_system": "Cav1.1^Δe29/ClC-1^−/− mice", "test": "Time of righting reflex in Cav1.1^Δe29/ClC-1^−/− mice", "type": "in vivo, mouse", "method": "Mice were held in a supine position on a level surface and then released. Two persons began timing immediately after release, and timing was stopped once all four paws were down on the surface. This was repeated for a total of 10 timed righting responses with a minimum of five minutes in between each recording to avoid myotonic warm-up. Recordings less than a second were recorded as “1,” and righting was considered a failure if righting took more than 60 seconds. If failure was reached, no further recordings were measured for that mouse for that week. The two longest and two shortest recording for each mouse was removed, and the average of the middle 6 recordings were used for analysis. Two-way ANOVA on the week-to-week results and one-way ANOAV with multiple comparisons for the timepoint data (10-week and 20-week) were performed."}, "[3]": {"test_system": "Cav1.1^Δe29/ClC-1^−/− mice", "test": "Whole body plethysmography in Cav1.1^Δe29/ClC-1^−/− mice", "type": "in vivo, mouse", "method": "Whole body plethysmography (Buxco® Small Animal Whole Body Plethysmography, Data Science Internation) was used to measure respiratory function at 10 weeks (all groups) and 20 weeks (excluding untreated Cav1.1^Δe29/ClC-1^−/−). Mice were acclimated to the system for two days, with data being collected on day three. […] Average data from the 10-minute acquisition period for frequency (Breath/min) and tidal volume (mL) were analyzed for statistics by one-way ANOVA with multiple comparisons."}, "[4]": {"test_system": "EDL muscle of Cav1.1^Δe29/ClC-1^−/− mice", "test": "In vitro muscle contraction of EDL isolated from long-term orally treated mice (no drug in bath)", "type": "in vivo, mouse", "conditions": "20-weeks-of-age, amlodipine treatment"}, "[5]": {"test_system": "diaphragm strip of Cav1.1^Δe29/ClC-1^−/− mice", "test": "In vitro muscle contraction of diaphragm strips isolated from long-term orally treated mice (no drug in bath)", "type": "in vivo, mouse"}, "[6]": {"test_system": "myotonic WT EDL", "test": "Myotonia, ex vivo EDL incubated with 9-AC", "design": "species or system mouse"}, "[7]": {"test_system": "myotonic Cav1.1^Δe29 EDL", "test": "Myotonia, ex vivo EDL incubated with 9-AC", "design": "species or system mouse"}, "[8]": {"test_system": "WT and Cav1.1^Δe29 EDLs (no 9AC)", "test": "Myotonia protocol, ex vivo EDL without 9-AC", "design": "species or system mouse", "conditions": "10 mM amlodipine in the bath"}, "[9]": {"test_system": "Cav1.1^Δe29+9-AC EDL muscle", "test": "Transient weakness, ex vivo EDL made myotonic with 9-AC", "design": "initial force generation drop: dose or concentration left out as unconfirmed", "conditions": "for transient weakness: 20-wk mice"}, "[10]": {"test_system": "non-myotonic and myotonic WT and Cav1.1^Δe29 mouse muscle", "test": "Peak contraction force of non-myotonic and myotonic ex vivo EDL, drug in bath", "conditions": "5 mM and 20 mM verapamil in bath, with or without 100 mM 9-AC; 20-wk mice"}, "[11]": {"test_system": "WT+9-AC EDL muscle", "test": "Transient weakness, ex vivo EDL made myotonic with 9-AC", "conditions": "in bath, 20-wk mice"}, "[12]": {"conditions": "5 mg/kg/day amlodipine vs untreated"}, "[13]": {"conditions": "20-weeks of age, amlodipine treated vs WT"}},
  "data": [
    {"molecule": "CCOC(=O)C1=C(COCCN)NC(C)=C(C(=O)OC)C1c1ccccc1Cl", "note": "(racemic) [amlodipine, (RS)-3-ethyl 5-methyl 2-[(2-aminoethoxy)methyl]-4-(2-chlorophenyl)-6-methyl-1,4-dihydropyridine-3,5-dicarboxylate]", "values": [
      {"measurement": "percent body weight change compared to WT", "setting": "[1]; 5 mg/kg/day amlodipine vs WT", "result": "not significantly different"},
      {"measurement": "percent body weight change from weaning at 10 weeks", "setting": "[1]; [12]", "result": "significant improvement"},
      {"measurement": "time of righting reflex, week-to-week, compared to ClC-1^−/− alone mice", "setting": "[2]; 5 mg/kg/day amlodipine", "result": "no significant difference in righting"},
      {"measurement": "average time of righting reflex compared to WT mice", "setting": "[2]; 5 mg/kg/day amlodipine vs WT", "result": "not a significant difference in time of righting"},
      {"measurement": "average time of righting reflex at 10- and 20-week of age", "setting": "[2]; [12]", "result": "significantly improve time of righting"},
      {"measurement": "time of righting reflex, weekly", "setting": "[2]; [12]", "result": "significantly improves time of righting"},
      {"measurement": "minute ventilation", "setting": "[3]; 10-week, amlodipine treated vs untreated", "result": "not improved"},
      {"measurement": "frequency of respiration", "setting": "[3]; 10-weeks, 5 mg/kg/day amlodipine", "result": "reduction in the frequency"},
      {"measurement": "frequency of respiration compared to WT", "setting": "[3]; [13]", "result": "not significantly different"},
      {"measurement": "minute ventilation compared to WT", "setting": "[3]; [13]", "result": "significant reduction"},
      {"measurement": "respiratory function overall", "setting": "[3]; amlodipine treatment", "result": "moderately impacted"},
      {"measurement": "muscle function and muscle force generation in EDL", "setting": "[4]", "result": "not a significant impact"},
      {"measurement": "muscle function and muscle force generation in diaphragm", "setting": "[5]; 20-weeks-of-age, amlodipine treatment", "result": "not a significant impact"},
      {"measurement": "diaphragm force reduction at 150 Hz and in frequency dependence protocol, compared to ClC-1^−/− alone mice", "setting": "[5]; 20-wk, amlodipine treated", "result": "comparable"},
      {"measurement": "diaphragm strip force generation compared to WT diaphragm", "setting": "[5]; 20-wk, amlodipine treated vs WT", "result": "force generation reduction"},
      {"measurement": "myotonia", "setting": "[6]; 10 mM amlodipine", "result": "reduced myotonia"},
      {"measurement": "myotonia", "setting": "[7]; 10 mM amlodipine", "result": "reduction in the myotonia"},
      {"measurement": "myotonia, difference between WT and Cav1.1^Δe29, first tetanus", "setting": "[7]; 10 mM amlodipine", "result": "significant difference"},
      {"measurement": "myotonia, difference between WT and Cav1.1^Δe29, following tetani", "setting": "[7]; 10 mM amlodipine, 100 mM 9-AC", "result": "no difference"},
      {"measurement": "myotonia (integration normalized to specific force) without 9AC", "setting": "[8]", "result": "has no affect"},
      {"measurement": "initial force generation drop", "setting": "[9]; 10 mm amlodipine in the bath", "result": "improved"},
      {"measurement": "transient weakness", "setting": "[9]; 10 mm amlodipine in the bath", "result": "improvement to transient weakness"}
    ]},
    {"molecule": "COc1ccc(CCN(C)CCCC(C#N)(c2ccc(OC)c(OC)c2)C(C)C)cc1OC", "note": "(racemic) [verapamil, (RS)-2-(3,4-Dimethoxyphenyl)-5-{[2-(3,4-dimethoxyphenyl)ethyl]-(methyl)amino}-2-prop-2-ylpentanenitrile]", "values": [
      {"measurement": "peak contraction force", "setting": "[10]", "result": "does not reduce peak contraction force"},
      {"measurement": "transient weakness", "setting": "[11]; 5 mM verapamil", "result": "improve transient weakness"},
      {"measurement": "transient weakness", "setting": "[11]; 20 mM verapamil", "result": "improve transient weakness"},
      {"measurement": "transient weakness", "setting": "[9]; 5 mM verapamil, in bath", "result": "improve transient weakness"},
      {"measurement": "transient weakness", "setting": "[9]; 20 um verapamil, in bath", "result": "significant and robust"}
    ]},
    {"molecule": "COC(=O)C1=C(C)NC(C)=C(C(=O)OC)C1c1ccccc1[N+](=O)[O-]", "note": "[nifedipine, 3,5-dimethyl 2,6-dimethyl-4-(2-nitrophenyl)-1,4-dihydropyridine-3,5-dicarboxylate]", "values": [
      {"measurement": "myotonia", "setting": "[6]; 75 nM nifedipine", "result": "reduced myotonia"},
      {"measurement": "myotonia", "setting": "[7]; 75 nM nifedipine", "result": "reduction in the myotonia"},
      {"measurement": "initial drop in force generation between the first and second tetani", "setting": "[9]; 10 mM nifedipine", "result": "improved"},
      {"measurement": "transient weakness", "setting": "[9]; 10 mM nifedipine in the bath", "result": "significant improvement in transient weakness"}
    ]}
  ]
}
